Laboratory results published in publication PMC9750858, “Rapid biosensor development using plant hormone receptors as reprogrammable scaffolds” (Nature Biotechnology, 2022).
Numbering of substitutions follows the chain as printed.

Assays:
PYR1^DIAZI / HAB1 = biological target: T1, PYR1^DIAZI / HAB1 (Arabidopsis thaliana, UniProt O49686, A160V/E8G/F108Y/F159G/L87M/M158V/V81Y); assay: Ligand/receptor-mediated PP2C (HAB1 phosphatase) inhibition, PYR1^DIAZI; type: biochemical
T1 construct: made in house
T1 sequence (O49686 with tags, fused parts or gaps E8G/V81Y/L87M/F108Y/M158V/F159G/A160V): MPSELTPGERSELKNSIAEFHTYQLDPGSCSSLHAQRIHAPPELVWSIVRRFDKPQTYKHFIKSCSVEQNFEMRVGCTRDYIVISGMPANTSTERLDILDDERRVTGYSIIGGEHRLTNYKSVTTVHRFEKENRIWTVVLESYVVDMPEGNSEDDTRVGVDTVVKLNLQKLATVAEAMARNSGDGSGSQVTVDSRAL

PYR1^DIAZI-M = biological target: T2, PYR1^DIAZI-M (Arabidopsis thaliana, UniProt O49686, A160V/E8G/F108Y/F159G/H60P/L87M/M158V/N90S/V81Y); assay: ELISA-like plate assay, immobilized PYR1^DIAZI-M, biotinylated ΔN-HAB1^T+; type: binding; conditions: tested at 20 μM, ELISA-format
T2 construct: made in house
T2 sequence (O49686 with tags, fused parts or gaps E8G/H60P/V81Y/L87M/N90S/F108Y/M158V/F159G/A160V): T1 sequence (O49686 with tags, fused parts or gaps E8G/V81Y/L87M/F108Y/M158V/F159G/A160V) with H60P, N90S

PYR1^PIRI / HAB1 = biological target: T3, PYR1^PIRI / HAB1 (Arabidopsis thaliana, UniProt O49686, A160T/E130G/F159T/K59R/N119S/S122Q/S92M/V174A); assay: Ligand/receptor-mediated PP2C (HAB1 phosphatase) inhibition, PYR1^PIRI; type: biochemical; conditions: HAB1 inhibition and Y2H assays
T3 construct: made in house
T3 sequence (O49686 with tags, fused parts or gaps K59R/S92M/N119S/S122Q/E130G/F159T/A160T/V174A): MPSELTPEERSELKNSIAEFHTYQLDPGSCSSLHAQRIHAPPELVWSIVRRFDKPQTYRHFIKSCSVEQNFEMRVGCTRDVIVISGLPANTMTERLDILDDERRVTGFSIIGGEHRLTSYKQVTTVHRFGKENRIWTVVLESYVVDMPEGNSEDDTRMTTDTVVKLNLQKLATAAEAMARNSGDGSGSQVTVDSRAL

PYR1^DIAZI [1] = biological target: T4, PYR1^DIAZI (Arabidopsis thaliana, UniProt O49686, A160V/E8G/F108Y/F159G/L87M/M158V/V81Y); assay: Split NanoLuc luciferase complementation in yeast, NLuc^N-PYR1^DIAZI/NLuc^C-HAB1; type: cell-based; parameters: >PYR1-DIAZI; expressed in transfected cells; host or cells: Saccharomyces cerevisiae BY4742
PYR1^DIAZI [2] = biological target: T4, PYR1^DIAZI; assay: Yeast transcriptional activation circuit Z4-PYR1/VP64-ΔN-HAB1, GFP reporter, PYR1^DIAZI; conditions: panel of six chemically similar organophosphates

T4 sequence (Q9CAJ0 179-511, one chain of several): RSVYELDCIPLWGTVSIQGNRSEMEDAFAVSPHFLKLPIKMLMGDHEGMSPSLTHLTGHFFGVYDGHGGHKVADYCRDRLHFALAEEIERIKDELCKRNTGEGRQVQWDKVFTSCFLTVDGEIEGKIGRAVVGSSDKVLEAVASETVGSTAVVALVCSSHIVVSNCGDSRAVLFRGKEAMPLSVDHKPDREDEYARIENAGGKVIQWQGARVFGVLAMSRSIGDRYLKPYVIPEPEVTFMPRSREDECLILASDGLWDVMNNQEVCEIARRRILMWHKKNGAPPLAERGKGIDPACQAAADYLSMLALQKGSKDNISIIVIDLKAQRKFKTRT

## CCOP(=S)(OCC)Oc1cc(C)nc(C(C)C)n1 [Diazinon, diazinon]
PYR1^DIAZI / HAB1
  EC50: 36 nM
PYR1^DIAZI-M
  discrimination of on-target ligand from other organophosphates by PYR1^DIAZI: good discrimination
PYR1^PIRI / HAB1
  ligand concentrations required for activation of PYR1^PIRI above background: high-nanomolar to low-micromolar
PYR1^DIAZI [1]
  EC50: 24 nM
PYR1^DIAZI [2]
  PYR1^DIAZI EC50 to on-target ligand relative to other organophosphates: greater than tenfold lower than all other molecules profiled
